Measurements taken from PubChem BioAssay (NCI).
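Tested at 5 concentrations; 48 h exposure; 96-well plates; endpoints linearly interpolated, else capped at highest concentration. GI50 = concentration required for 50% inhibition of growth. At the TGI there is no net growth.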

Experiments:
Assay in all cases: inhibition of tumour cell growth, NCI panel, 48 h
MDA-MB-231 breast = system: MDA-MB-231 breast
KM12 colon = system: KM12 colon
HCT-116 colon = system: HCT-116 colon
U251 CNS = system: U251 CNS
RPMI-8226 leukemia = system: RPMI-8226 leukemia
T-47D breast = system: T-47D breast
SN12C renal = system: SN12C renal
MDA-MB-435 = system: MDA-MB-435
OVCAR-5 ovarian = system: OVCAR-5 ovarian
UACC-62 melanoma = system: UACC-62 melanoma
NCI/ADR-RES ovarian = system: NCI/ADR-RES ovarian
786-0 renal = system: 786-0 renal
LOX IMVI melanoma = system: LOX IMVI melanoma
OVCAR-3 ovarian = system: OVCAR-3 ovarian
HT29 colon = system: HT29 colon
HOP-92 NSCLC = system: HOP-92 NSCLC
IGROV1 ovarian = system: IGROV1 ovarian
MALME-3M melanoma = system: MALME-3M melanoma
SK-MEL-28 melanoma = system: SK-MEL-28 melanoma
SK-MEL-2 melanoma = system: SK-MEL-2 melanoma
SF-295 CNS = system: SF-295 CNS
DU-145 prostate = system: DU-145 prostate
PC-3 prostate = system: PC-3 prostate
UACC-257 melanoma = system: UACC-257 melanoma
SK-OV-3 ovarian = system: SK-OV-3 ovarian
SW-620 colon = system: SW-620 colon
SR leukemia = system: SR leukemia
CCRF-CEM leukemia = system: CCRF-CEM leukemia
SF-268 CNS = system: SF-268 CNS
HL-60(TB) leukemia = system: HL-60(TB) leukemia
HOP-62 NSCLC = system: HOP-62 NSCLC
SK-MEL-5 melanoma = system: SK-MEL-5 melanoma
K-562 leukemia = system: K-562 leukemia
NCI-H460 lung = system: NCI-H460 lung
HCC-2998 colon = system: HCC-2998 colon
OVCAR-4 ovarian = system: OVCAR-4 ovarian
HCT-15 colon = system: HCT-15 colon
SF-539 CNS = system: SF-539 CNS
M14 melanoma = system: M14 melanoma
HS 578T breast = system: HS 578T breast
UO-31 renal = system: UO-31 renal
NCI-H23 lung = system: NCI-H23 lung
NCI-H522 lung = system: NCI-H522 lung
NCI-H226 lung = system: NCI-H226 lung
A549 NSCLC = system: A549 NSCLC
RXF 393 renal = system: RXF 393 renal
OVCAR-8 ovarian = system: OVCAR-8 ovarian
BT-549 breast = system: BT-549 breast
SNB-19 CNS = system: SNB-19 CNS
TK-10 renal = system: TK-10 renal
ACHN renal = system: ACHN renal
MCF7 breast = system: MCF7 breast
EKVX NSCLC = system: EKVX NSCLC
COLO 205 colon = system: COLO 205 colon
MOLT-4 leukemia = system: MOLT-4 leukemia
SNB-75 CNS = system: SNB-75 CNS
A498 renal = system: A498 renal
CAKI-1 renal = system: CAKI-1 renal

O=C(NNc1nc2cc(F)cc(F)c2n2cccc12)c1ncccn1
GI50 (MDA-MB-231 breast): 1.22 µM | TGI (MDA-MB-231 breast): > 25.3 µM | GI50 (KM12 colon): 0.537 µM | TGI (KM12 colon): > 30 µM | GI50 (HCT-116 colon): 0.341 µM | TGI (HCT-116 colon): > 21.1 µM | GI50 (U251 CNS): 0.282 µM | TGI (U251 CNS): > 19.1 µM | GI50 (RPMI-8226 leukemia): 1.18 µM | TGI (RPMI-8226 leukemia): > 30 µM | GI50 (T-47D breast): 1.06 µM | TGI (T-47D breast): 22.7 µM | GI50 (SN12C renal): 1.2 µM | TGI (SN12C renal): > 30 µM | GI50 (MDA-MB-435): 1.24 µM | TGI (MDA-MB-435): > 30 µM | GI50 (OVCAR-5 ovarian): 1.18 µM | TGI (OVCAR-5 ovarian): > 30 µM | GI50 (UACC-62 melanoma): 0.377 µM | TGI (UACC-62 melanoma): > 9.21 µM | GI50 (NCI/ADR-RES ovarian): 0.218 µM | TGI (NCI/ADR-RES ovarian): 10.3 µM | GI50 (786-0 renal): 0.901 µM | TGI (786-0 renal): > 14.8 µM | GI50 (LOX IMVI melanoma): 0.487 µM | TGI (LOX IMVI melanoma): 15.8 µM | GI50 (OVCAR-3 ovarian): 0.73 µM | TGI (OVCAR-3 ovarian): > 30 µM | GI50 (HT29 colon): 0.94 µM | TGI (HT29 colon): > 30 µM | GI50 (HOP-92 NSCLC): 1.24 µM | TGI (HOP-92 NSCLC): 20.7 µM | GI50 (IGROV1 ovarian): 0.42 µM | TGI (IGROV1 ovarian): 22.4 µM | GI50 (MALME-3M melanoma): 1.05 µM | TGI (MALME-3M melanoma): 19.6 µM | GI50 (SK-MEL-28 melanoma): 0.682 µM | TGI (SK-MEL-28 melanoma): > 30 µM | GI50 (SK-MEL-2 melanoma): 2.95 µM | TGI (SK-MEL-2 melanoma): 30 µM | GI50 (SF-295 CNS): 0.176 µM | TGI (SF-295 CNS): 4.99 µM | GI50 (DU-145 prostate): 0.751 µM | TGI (DU-145 prostate): > 30 µM | GI50 (PC-3 prostate): 0.786 µM | TGI (PC-3 prostate): > 26.8 µM | GI50 (UACC-257 melanoma): 1.18 µM | TGI (UACC-257 melanoma): 15.7 µM | GI50 (SK-OV-3 ovarian): 0.443 µM | TGI (SK-OV-3 ovarian): 9.81 µM | GI50 (SW-620 colon): 1.01 µM | TGI (SW-620 colon): > 30 µM | GI50 (SR leukemia): 0.221 µM | TGI (SR leukemia): > 30 µM | GI50 (CCRF-CEM leukemia): 0.327 µM | TGI (CCRF-CEM leukemia): > 30 µM | GI50 (SF-268 CNS): 0.521 µM | TGI (SF-268 CNS): > 30 µM | GI50 (HL-60(TB) leukemia): 0.803 µM | TGI (HL-60(TB) leukemia): 5.07 µM | GI50 (HOP-62 NSCLC): 0.226 µM | TGI (HOP-62 NSCLC): 22.4 µM | GI50 (SK-MEL-5 melanoma): 0.584 µM | TGI (SK-MEL-5 melanoma): 2.86 µM | GI50 (K-562 leukemia): 1 µM | TGI (K-562 leukemia): > 30 µM | GI50 (NCI-H460 lung): 0.212 µM | TGI (NCI-H460 lung): 3.9 µM | GI50 (HCC-2998 colon): 0.863 µM | TGI (HCC-2998 colon): > 30 µM | GI50 (OVCAR-4 ovarian): 0.801 µM | TGI (OVCAR-4 ovarian): > 23.7 µM | GI50 (HCT-15 colon): 0.121 µM | TGI (HCT-15 colon): 6.21 µM | GI50 (SF-539 CNS): 0.728 µM | TGI (SF-539 CNS): > 16.6 µM | GI50 (M14 melanoma): 0.39 µM | TGI (M14 melanoma): 5.62 µM | GI50 (HS 578T breast): 3.18 µM | TGI (HS 578T breast): > 28.6 µM | GI50 (UO-31 renal): 0.116 µM | TGI (UO-31 renal): 3.67 µM | GI50 (NCI-H23 lung): 1.35 µM | TGI (NCI-H23 lung): > 30 µM | GI50 (NCI-H522 lung): 1.03 µM | TGI (NCI-H522 lung): > 17 µM | GI50 (NCI-H226 lung): 0.585 µM | TGI (NCI-H226 lung): 6.67 µM | GI50 (A549 NSCLC): 0.437 µM | TGI (A549 NSCLC): 8.67 µM | GI50 (RXF 393 renal): 1.31 µM | TGI (RXF 393 renal): 5.64 µM | GI50 (OVCAR-8 ovarian): 0.509 µM | TGI (OVCAR-8 ovarian): > 30 µM | GI50 (BT-549 breast): 1.04 µM | TGI (BT-549 breast): 17 µM | GI50 (SNB-19 CNS): 0.688 µM | TGI (SNB-19 CNS): > 30 µM | GI50 (TK-10 renal): 0.427 µM | TGI (TK-10 renal): 8.02 µM | GI50 (ACHN renal): 0.164 µM | TGI (ACHN renal): 3.83 µM | GI50 (MCF7 breast): 0.862 µM | TGI (MCF7 breast): 10.7 µM | GI50 (EKVX NSCLC): 0.409 µM | TGI (EKVX NSCLC): 8.71 µM | GI50 (COLO 205 colon): 0.773 µM | TGI (COLO 205 colon): > 30 µM | GI50 (MOLT-4 leukemia): 0.613 µM | TGI (MOLT-4 leukemia): > 30 µM | GI50 (SNB-75 CNS): 0.793 µM | TGI (SNB-75 CNS): > 27.6 µM | GI50 (A498 renal): 1.2 µM | TGI (A498 renal): 5.85 µM | GI50 (CAKI-1 renal): 0.336 µM | TGI (CAKI-1 renal): 9.5 µM
